19 compounds from PubChem BioAssay AID248 (DTP/NCI, 2004) can be followed below.

Values joined by “and” are separate entries in the source; they are usually repeats but may differ in a detail not shown here. Equal entries are not always repeated. Toxic doses and inconclusive results are not listed.

The subject of this assay is L1210 leukemia ip in BDF1 mice, survival T/C. The assay is described as follows: NCI In Vivo Anticancer Drug Screen. Data for tumor model L1210 Leukemia (intraperitoneal) in B6D2F1 (BDF1) mice. Conditions: endpoint: mean survival time, higher = longer survival. A digest of the protocol: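 Ratio derived from survival: compound-dosed mice over vehicle-dosed mice, all bearing a transplantable tumor.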

The mark [1] stands for this setting: dose: 100.0 mg/kg/injection, schedule: Q01DX009 (ip), vehicle: saline.
The mark [2] stands for this setting: dose: 200.0 mg/kg/injection, schedule: Q01DX009 (ip), vehicle: saline.
The mark [3] stands for this setting: dose: 5.0 mg/kg/injection, schedule: Q01DX001 (ip), vehicle: saline.
Where [4] appears, read: dose: 100.0 mg/kg/injection, schedule: Q04DX003 (ip), vehicle: saline with Tween-80.
The mark [5] stands for this setting: dose: 200.0 mg/kg/injection, schedule: Q04DX003 (ip), vehicle: saline with Tween-80.
The mark [6] stands for this setting: dose: 400.0 mg/kg/injection, schedule: Q04DX003 (ip), vehicle: saline with Tween-80.
[7] abbreviates: dose: 100.0 mg/kg/injection, schedule: Q01DX001 (ip), vehicle: saline.
Where [8] appears, read: dose: 200.0 mg/kg/injection, schedule: Q01DX001 (ip), vehicle: saline.
The mark [9] stands for this setting: dose: 100.0 mg/kg/injection, schedule: Q01DX009 (ip), vehicle: saline with Tween-80.
Setting [10] is: dose: 200.0 mg/kg/injection, schedule: Q01DX009 (ip), vehicle: saline with Tween-80.
Where [11] appears, read: dose: 400.0 mg/kg/injection, schedule: Q01DX009 (ip), vehicle: saline with Tween-80.

On to `Nc1cccs1`, for which the T/C (dose: 8.12 mg/kg/injection, schedule: Q01DX009 (ip), vehicle: saline) is 100 % of control; the T/C (dose: 9.37 mg/kg/injection, schedule: Q01DX009 (ip), vehicle: other) was 94 % of control; the T/C (dose: 16.25 mg/kg/injection, schedule: Q01DX009 (ip), vehicle: saline) was 100 % of control; the T/C (dose: 18.75 mg/kg/injection, schedule: Q01DX009 (ip), vehicle: other) was 107 % of control; the T/C (dose: 37.5 mg/kg/injection, schedule: Q01DX009 (ip), vehicle: other) was 107 % of control; the T/C (dose: 75.0 mg/kg/injection, schedule: Q01DX009 (ip), vehicle: other) was 96 % of control. In addition, the T/C reads like this: under setting [1], 153 % of control; (dose: 150.0 mg/kg/injection, schedule: Q01DX009 (ip), vehicle: other) 96 % of control; (dose: 300.0 mg/kg/injection, schedule: Q01DX009 (ip), vehicle: other) 102 % of control.

As for `CC(=Nc1cccc(C)c1C)c1c(O)cc(C)oc1=O`, the T/C is 108 % of control under setting [1]; 97 % of control under setting [2]; 103 % of control (dose: 400.0 mg/kg/injection, schedule: Q01DX009 (ip), vehicle: saline).

Regarding `Cc1cccc(C(=O)O)n1.[Cu+2]`, the T/C was 103 % of control under setting [3] and 113 % of control (dose: 10.0 mg/kg/injection, schedule: Q01DX001 (ip), vehicle: saline).

`CN(/N=C/C(O)C(O)C(O)CO)c1ccccc1` (stereo not given): the T/C under setting [1] was 95 % of control; the T/C under setting [4] was 102 % of control and 98 % of control; the T/C under setting [2] is 90 % of control; the T/C under setting [5] is 93 % of control and 96 % of control; the T/C under setting [6] was 94 % of control and 96 % of control.

Take `CCOP(N)(=O)SCC` (stereo not given): under setting [3], the T/C was 110 % of control.

Take `Nc1ccc(C(=O)O)cn1`: the T/C is, setting by setting: (dose: 50.0 mg/kg/injection, schedule: Q01DX001 (ip), vehicle: saline) 96 % of control; under setting [7], 106 % of control; under setting [8], 100 % of control.

In the case of `Cc1ncn[nH]1`, the T/C is, setting by setting: (dose: 100.0 mg/kg/injection, schedule: Q04DX002 (ip), vehicle: saline) 96 % of control; (dose: 200.0 mg/kg/injection, schedule: Q04DX002 (ip), vehicle: saline) 100 % of control; (dose: 400.0 mg/kg/injection, schedule: Q04DX002 (ip), vehicle: saline) 89 % of control.

Regarding `COC(=O)Nc1cccc2c1-c1ccccc1C2=O`, the T/C was 95 % of control (dose: 50.0 mg/kg/injection, schedule: Q04DX003 (ip), vehicle: Klucel (hydroxypropylcellulose) (HPC)); 95 % of control (dose: 100.0 mg/kg/injection, schedule: Q04DX003 (ip), vehicle: Klucel (hydroxypropylcellulose) (HPC)); 100 % of control (dose: 200.0 mg/kg/injection, schedule: Q04DX003 (ip), vehicle: Klucel (hydroxypropylcellulose) (HPC)).

Take `COc1ccc2c(c1)C1(C)CCN(CCc3ccccc3)C(C2)C1C` (stereo not given): the T/C reads like this: (dose: 75.0 mg/kg/injection, schedule: Q01DX001 (ip), vehicle: carboxymethylcellulose (CMC)) 93 % of control; (dose: 150.0 mg/kg/injection, schedule: Q01DX001 (ip), vehicle: carboxymethylcellulose (CMC)) 94 % of control.

As to `CCN(C(C)(C)C(SSSC(c1ccc(Cl)cc1)C(C)(C)N(CC)S(C)(=O)=O)c1ccc(Cl)cc1)S(C)(=O)=O` (stereo not given), the T/C under setting [9] was 91 % of control.

On to `CC12CC(O)C3C(CCC4CC(O)CCC43C)C1CCC2C(=O)CO` (stereo not given), for which the T/C by setting is: (dose: 100.0 mg/kg/injection, schedule: Q01DX001 (sc), vehicle: steriod suspending solution) 102 % of control; (dose: 200.0 mg/kg/injection, schedule: Q01DX001 (sc), vehicle: steriod suspending solution) 104 % of control; (dose: 400.0 mg/kg/injection, schedule: Q01DX001 (sc), vehicle: steriod suspending solution) 102 % of control.

Turning to `O=C1c2cc(Cl)ccc2-c2c(Cl)cc(Cl)cc21`, the T/C is 89 % of control (dose: 100.0 mg/kg/injection, schedule: Q01DX001 (ip), vehicle: acetone); 87 % of control (dose: 100.0 mg/kg/injection, schedule: Q04DX003 (ip), vehicle: saline); 89 % of control (dose: 200.0 mg/kg/injection, schedule: Q01DX001 (ip), vehicle: acetone); 96 % of control (dose: 200.0 mg/kg/injection, schedule: Q04DX003 (ip), vehicle: saline); 95 % of control (dose: 400.0 mg/kg/injection, schedule: Q01DX001 (ip), vehicle: acetone); 86 % of control (dose: 400.0 mg/kg/injection, schedule: Q04DX003 (ip), vehicle: saline).

As to `Cc1cncc(CC(O)(C(F)(F)F)C(F)(F)F)n1`, the T/C under setting [7] was 102 % of control; the T/C under setting [9] was 97 % of control; the T/C under setting [8] was 96 % of control; the T/C under setting [10] is 103 % of control; the T/C (dose: 400.0 mg/kg/injection, schedule: Q01DX001 (ip), vehicle: saline) is 104 % of control; the T/C under setting [11] is 101 % of control.

As to `CC(=O)N(C)c1ccc(NC(=O)Nc2cccc(C(F)(F)F)c2)cc1`, the T/C under setting [9] is 94 % of control, the T/C under setting [10] was 99 % of control and the T/C under setting [11] is 97 % of control.

As for `c1ccc(-c2cnnn2-c2ccccc2)cc1`, the T/C reads like this: (dose: 100.0 mg/kg/injection, schedule: Q01DX001 (ip), vehicle: saline with Tween-80) 105 % of control; (dose: 200.0 mg/kg/injection, schedule: Q01DX001 (ip), vehicle: saline with Tween-80) 100 % of control; (dose: 400.0 mg/kg/injection, schedule: Q01DX001 (ip), vehicle: saline with Tween-80) 105 % of control.

Regarding `CCOC(=O)NC1=NCC(C)(C)S1`, for the setting “dose: 75.0 mg/kg/injection, schedule: Q01DX001 (ip), vehicle: saline”, the T/C was 97 % of control.

Consider `CCCCCCCCCCCCOc1ccc(/C(=N\N=C(N)N)c2ccccc2)c(O)c1`, for which the T/C (dose: 15.0 mg/kg/injection, schedule: Q01DX Z (ip), vehicle: saline) is 91 % of control; the T/C (dose: 30.0 mg/kg/injection, schedule: Q01DX Z (ip), vehicle: saline) is 89 % of control; the T/C (dose: 120.0 mg/kg/injection, schedule: Q01DX Z (ip), vehicle: saline) was 92 % of control; the T/C (dose: 120.0 mg/kg/injection, schedule: Q01DX Z (oral), vehicle: saline) was 102 % of control; the T/C (dose: 240.0 mg/kg/injection, schedule: Q01DX Z (ip), vehicle: saline) was 103 % of control; the T/C (dose: 240.0 mg/kg/injection, schedule: Q01DX Z (oral), vehicle: saline) is 102 % of control. The T/C (dose: 480.0 mg/kg/injection, schedule: Q01DX Z (ip), vehicle: saline) is 110 % of control; the T/C (dose: 480.0 mg/kg/injection, schedule: Q01DX Z (oral), vehicle: saline) is 95 % of control; the T/C (dose: 960.0 mg/kg/injection, schedule: Q01DX Z (oral), vehicle: saline) is 101 % of control.

Take `NC(Cn1ccc(=O)c(O)c1)C(=O)O` (stereo not given): the T/C is 105 % of control (dose: 50.0 mg/kg/injection, schedule: Q01DX009 (ip), vehicle: saline); 103 % of control (dose: 75.0 mg/kg/injection, schedule: Q04DX003 (ip), vehicle: saline); 102 % of control under setting [1]; 95 % of control under setting [4]; 92 % of control (dose: 111.0 mg/kg/injection, schedule: Q01DX Z (ip), vehicle: saline); 92 % of control (dose: 150.0 mg/kg/injection, schedule: Q04DX003 (ip), vehicle: saline). The T/C was 95 % of control (dose: 178.0 mg/kg/injection, schedule: Q01DX Z (ip), vehicle: saline); 102 % of control under setting [2]; 94 % of control under setting [5]; 108 % of control (dose: 267.0 mg/kg/injection, schedule: Q01DX Z (ip), vehicle: saline); 90 % of control (dose: 300.0 mg/kg/injection, schedule: Q04DX003 (ip), vehicle: saline); 93 % of control (dose: 400.0 mg/kg/injection, schedule: Q01DX Z (ip), vehicle: saline). The T/C under setting [6] is 100 % of control and the T/C (dose: 800.0 mg/kg/injection, schedule: Q01DX009 (ip), vehicle: saline) was 111 % of control.

Take `CCCCNC(=S)NC(=O)c1ccc(Br)cc1`: the T/C is, setting by setting: (dose: 100.0 mg/kg/injection, schedule: Q04DX002 (ip), vehicle: Klucel (hydroxypropylcellulose) (HPC)) 97 % of control; (dose: 200.0 mg/kg/injection, schedule: Q04DX002 (ip), vehicle: Klucel (hydroxypropylcellulose) (HPC)) 97 % of control; (dose: 400.0 mg/kg/injection, schedule: Q04DX002 (ip), vehicle: Klucel (hydroxypropylcellulose) (HPC)) 90 % of control.
